Data on three compounds can be found in patent US20200031825A1, “HETEROAROMATIC-FUSED IMIDAZOLYL AMIDES, COMPOSITIONS AND USES THEREOF AS STING AGONISTS” (Trillium Therapeutics Inc., priority 2018, published 2020).

Each structure is given as a SMILES string.

Data set [1] relates to mouse dendritic cells (m-DCs). The data set can be described thus: Cellular Functional Assay II: secreted IFN-β from mouse dendritic cells. As to conditions: m-DC. It counts as cell-based. How it is done:
(§1) Activation of STING in primary cells was determined by measuring levels of secreted IFN-β from human monocyte-derived macrophages (h-MDMs)/dendritic cells (h-DCs) and/or mouse dendritic cells (m-DCs) after treatment with A.
(§2) Human CD14+ cells were first isolated from human peripheral blood mononuclear cells (PBMCs) with Stemcell Easysep Monocyte Isolation™ kit. Human CD14+ cells were kept in conditioned media for 7-12 days to generate h-MDMs and h-DCs before use. After harvesting from C57BL/6 mouse femurs, bone marrow cells were culture in conditioned media for 7 days to generate m-DCs before use.
(§3) The Culture conditions for the various types of cells whereas noted in Table 2:
(§4) 0.5×10^6 cells in 50 ul buffer (50 mM HEPES, pH7.0; 100 mM KCl; 3 mM MgCl2, 0.1 mM DTT; 85 mM Sucrose; 0.2% BSA, 1 mM ATP) in 96-well round bottom plate. Compound (formulated in DMSO) or DMSO (control) were added into each well and the plate incubate at 37° C. for 30 minutes. Cells were washed twice with 100 uL of fresh media and incubated at 37° C. for an additional 6 hours. After 6 hour of incubation, the supernatant was collected and a Cytometry Bead Assay™ (CBA, BioLegend) was used to measure […] levels.

Data set [2] deals with human monocyte-derived macrophages (h-MDMs). Nature of the data set: Cellular Functional Assay II: secreted IFN-β from human monocyte-derived macrophages. The note with it: h-MDM. It counts as cell-based. How it is done: as §1, §2, §3, §4
Data set [3] has as its system human dendritic cells (h-DCs). Nature of the data set: Cellular Functional Assay II: secreted IFN-β from human dendritic cells. Type of data set: cell-based. The note with it: h-DC. How it is done:
as §1, §2, §3, §4

For data set [4], the target named is hSTING-HAQ (Homo sapiens, UniProt Q86WV6, G230A/H232R/R293Q/R71H). The data set can be described thus: Cellular Functional Assay I: ISRE-SEAP reporter in HEK-293T-Dual Null cells transfected with hSTING-HAQ. Type of data set: cell-based. As to conditions: for EC50: HEK-293T-Dual Null, hSTING-HAQ.
The target of data set [5] is hSTING-wt (Homo sapiens, UniProt Q86WV6). Nature of the data set: Cellular Functional Assay I: ISRE-SEAP reporter in HEK-293T-Dual Null cells transfected with hSTING-wt. It counts as cell-based. As to conditions: for EC50: HEK-293T-Dual Null, hSTING-wt.
In data set [6] the target is T1, hSTING-Q (Homo sapiens, UniProt Q86WV6, R293Q).
T1 construct: expressed in transfected cells
The data set can be described thus: Cellular Functional Assay I: ISRE-SEAP reporter, hSTING-Q allele. Type of data set: cell-based.

Data set [7] addresses T2, mSTING-wt (Mus musculus, UniProt Q3TBT3).
T2 sequence (Q3TBT3 1-378): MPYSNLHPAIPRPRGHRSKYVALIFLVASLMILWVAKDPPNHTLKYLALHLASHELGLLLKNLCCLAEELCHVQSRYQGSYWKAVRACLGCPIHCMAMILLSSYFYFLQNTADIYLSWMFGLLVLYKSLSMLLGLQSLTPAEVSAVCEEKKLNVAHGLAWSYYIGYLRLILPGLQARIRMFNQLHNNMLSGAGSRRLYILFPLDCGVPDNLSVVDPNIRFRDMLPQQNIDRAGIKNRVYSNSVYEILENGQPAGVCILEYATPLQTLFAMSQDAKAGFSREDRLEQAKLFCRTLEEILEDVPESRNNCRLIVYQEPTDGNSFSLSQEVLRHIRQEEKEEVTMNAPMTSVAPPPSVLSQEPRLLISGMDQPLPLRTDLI
Nature of the data set: Cellular Functional Assay I: ISRE-SEAP reporter in HEK-293T-Dual Null cells transfected with mouse STING. Type of data set: cell-based. As to conditions: SEAP reporter; for EC50: HEK-293T-Dual Null, mSTING-wt, read-out: EC50 mSTING-wt.

For data set [8], the target named is hSTING-H232 (Homo sapiens, UniProt Q86WV6). Nature of the data set: Cellular Functional Assay I: ISRE-SEAP reporter in HEK-293T-Dual Null cells transfected with hSTING-H232. Type of data set: cell-based. The note with it: for EC50: HEK-293T-Dual Null, hSTING-H232.
For data set [9], the target named is T3, hSTING-AQ (Homo sapiens, UniProt Q86WV6, G230A/R293Q).
T3 construct: expressed in transfected cells
Nature of the data set: Cellular Functional Assay I: ISRE-SEAP reporter, hSTING-AQ allele. Type of data set: cell-based.

Data set [10] relates to murine A20 model of B cell lymphoma. The data set can be described thus: In vivo syngeneic A20 mouse tumor model. As to conditions: Balb/c mice. How it is done:
The in vivo efficacy of exemplary compound I(c) was evaluated in a murine A20 model of B cell lymphoma. A20 cells were maintained in RPMI1640/10% FBS. Approximately 4×10^6 A20 cells were injected subcutaneously in 0.1 mL PBS into the right flanks of immunocompetent female Balb/c mice. Tumors were permitted to grow for six days after initial inoculation before the animals were segregated into treatment group. Study groups were treated with 25 μg of B formulated in an appropriate vehicle. Exemplary compound B was dosed intratumorally at the proximal tumor (right flank) on days 6, 8, and 11 of the study. Only animals in good health were used for dosing. Since the effects of the test article on the animals were not known, animals were closely observed for 1 h following dosing and at each tumor measurement time point over the course of the study. Any adverse reactions to the administration of the test material were noted and tabulated. […] Systemic toxicity of the treatments was evaluated by body weight change. Tumor volume was measured every 2 days using standard caliper measurement techniques.

The mark [11] stands for this setting: A20 tumor, 25 μg intratumorally on days 6, 8 and 11.

Broadly, the EC50 is the concentration needed to bring the measured effect to its halfway point.

Chain of hSTING-H232 (Q86WV6 whole entry): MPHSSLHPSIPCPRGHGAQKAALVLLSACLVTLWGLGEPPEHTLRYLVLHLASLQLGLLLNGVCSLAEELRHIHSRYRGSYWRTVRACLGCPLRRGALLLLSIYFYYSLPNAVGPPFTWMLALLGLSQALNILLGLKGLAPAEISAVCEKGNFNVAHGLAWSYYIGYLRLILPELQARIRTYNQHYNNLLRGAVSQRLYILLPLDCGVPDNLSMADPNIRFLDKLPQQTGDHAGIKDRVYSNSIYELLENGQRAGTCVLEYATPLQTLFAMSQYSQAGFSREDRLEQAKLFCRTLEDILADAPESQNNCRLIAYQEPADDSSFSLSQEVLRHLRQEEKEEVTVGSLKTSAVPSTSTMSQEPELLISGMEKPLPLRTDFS
Chain of hSTING-wt (Q86WV6 whole entry H232R): as the sequence (Q86WV6 whole entry) above, with H232R counted along it
Chain of hSTING-HAQ (Q86WV6 whole entry R71H/G230A/H232R/R293Q): as the sequence (Q86WV6 whole entry) above, with R71H, G230A, H232R, R293Q counted along it
T3 sequence (Q86WV6 whole entry G230A/H232R/R293Q): as the sequence (Q86WV6 whole entry) above, with G230A, H232R, R293Q counted along it
T1 sequence (Q86WV6 whole entry R293Q): as the sequence (Q86WV6 whole entry) above, with R293Q counted along it

Turning to `Nc1nc2c(ncn2[C@@H]2O[C@@H]3COP(=O)(O)O[C@H]4[C@@H](O)[C@H](n5cnc6c(N)ncnc65)O[C@@H]4COP(=O)(O)O[C@@H]2[C@@H]3O)c(=O)[nH]1` [2′3-cGAMP, reference compound], the IFN-β level is less than 300 pg/mL in data set [1] (0.1 uM); <1,000 pg/ml in data set [1] (1 uM); <3,000 pg/ml in [1] (10 uM); less than 10 pg/mL in data set [2] (0.1 uM); less than 20 pg/mL in data set [2] (1 uM); less than 50 pg/mL in data set [2] (10 uM). The IFN-β level was less than 10 pg/mL in data set [3] (0.1 uM) and less than 50 pg/mL in data set [3] (10 uM).

Take `CCn1nc(C)cc1C(=O)Nc1nc2cc(C(N)=O)cnc2n1C/C=C/Cn1c(NC(=O)c2cc(C)nn2CC)nc2cc(C(N)=O)cc(OC)c21` [Compound A, 3-[(E)-4-[5-carbamoyl-2-[(2-ethyl-5-methyl-pyrazole-3-carbonyl)amino]-7-methoxy-benzimidazol-1-yl]but-2-enyl]-2-[(2-ethyl-5-methyl-pyrazole-3-carbonyl)amino]imidazo[4,5-b]pyridine-6-carboxamide]: the EC50 in data set [4] is 1 to 500 nM; in [5], less than 1 nM; in data set [6], 1 to 500 nM; in data set [7], less than 1 nM; in data set [8] it was less than 1 nM; in data set [9], 1 to 500 nM. In addition, the IFN-β level is greater than 100 pg/mL in [1] (0.1 uM); >10,000 pg/ml in data set [1] (1 uM); >50,000 pg/ml in data set [1] (10 uM); >1,000 pg/ml in [2] (0.1 uM); >1,000 pg/ml in [2] (1 uM); >1,000 pg/ml in [2] (10 uM). For the same compound, the IFN-β level in data set [3] (0.1 uM) is reported as >5,000 pg/ml; in data set [3] (10 uM), >15,000 pg/ml.

For the compound `CCn1nc(C)cc1C(=O)Nc1nc2cc(C(N)=O)cnc2n1C/C=C/Cn1c(NC(=O)c2cc(C)nn2CC)nc2cc(C(N)=O)cc(C)c21.Cl.Cl.Cl.Cl` [Compound B, 3-[(E)-4-[5-carbamoyl-2-[(2-ethyl-5-methyl-pyrazole-3-carbonyl)amino]-7-methyl-benzimidazol-1-yl]but-2-enyl]-2-[(2-ethyl-5-methyl-pyrazole-3-carbonyl)amino]imidazo[4,5-b]pyridine-6-carboxamide Tetrahydrochloride], the “EC50 level, human STING HAQ” value in data set [4] is reported as “pM or nM level”. Moreover, the EC50 in [4] is 1 to 500 nM; in [5] it was less than 1 nM; in data set [6] it was 1 to 500 nM; in data set [7] it was 1 to 500 nM; in data set [8] it was less than 1 nM; in data set [9], 1 to 500 nM. In addition, the IFN-β level is >60,000 pg/ml in data set [1] (10 uM), greater than 800 pg/mL in data set [3] (0.1 uM), >1,000 pg/ml in data set [3] (1 uM) and >1,000 pg/ml in [3] (10 uM). For the same compound, in data set [5], the “EC50 level, human STING WT” value is listed as “pM or nM level”. Also, the “EC50 level, mouse STING” value in data set [7] is “pM or nM level”. The “dose related toxicity as measured by body weight loss” value in data set [10] (25 μg dose group) is recorded as “no dose related toxicity”. The “animals with complete tumor regression” value in data set [10] (setting [11]) turned out to be 80%. Besides, the “tumoricidal effect at the injected tumor” value in data set [10] (setting [11]) is “significant tumoricidal properties”. Also, the “EC50 level, human STING REF (also called H232)” value in [8] is “pM or nM level”.
